Laboratory results as given in publication PMC11842588, “A first-in-class selective inhibitor of ERK1/2 and ERK5 overcomes drug resistance with a single-molecule strategy” (Signal Transduction and Targeted Therapy, 2025).

Assays:
Test in all cases: Kinase profiling
Type in all cases: biochemical
[1] = biological target: T1, RIPK1(h) (Homo sapiens, UniProt Q13546)
T1 construct: purchased Eurofins Cerep SA (KinaseProfiler)
Protocol: (§1) 380 kinases inhibitory activities of SKLB-D18 were conducted by Eurofins Cerep SA. The result was illustrated by kinase tree (http://www.kinhub.org/kinmap/).

[2] = biological target: T2, Rsk3(h) (Homo sapiens, UniProt Q15349)
T2 construct: purchased Eurofins Cerep SA (KinaseProfiler)
Protocol: as §1

[3] = biological target: T3, BrSK2(h) (Homo sapiens, UniProt Q8IWQ3)
T3 construct: purchased Eurofins Cerep SA (KinaseProfiler)
Protocol: as §1

[4] = biological target: T4, TLK2(h) (Homo sapiens, UniProt Q86UE8)
T4 construct: purchased Eurofins Cerep SA (KinaseProfiler)
Protocol: as §1

[5] = biological target: T5, DYRK3(h) (Homo sapiens, UniProt O43781)
T5 construct: purchased Eurofins Cerep SA (KinaseProfiler)
Protocol: as §1

[6] = biological target: T6, Wee1(h) (Homo sapiens, UniProt P30291)
T6 construct: purchased Eurofins Cerep SA (KinaseProfiler)
Protocol: as §1

[7] = biological target: T7, ALK6(h) (Homo sapiens, UniProt O00238)
T7 construct: purchased Eurofins Cerep SA (KinaseProfiler)
Protocol: as §1

[8] = biological target: T8, TGFBR1(h) (Homo sapiens, UniProt P36897)
T8 construct: purchased Eurofins Cerep SA (KinaseProfiler)
Protocol: as §1

[9] = biological target: T9, CDK9/cyclin T1(h) (Homo sapiens, UniProt P50750)
T9 construct: purchased Eurofins Cerep SA (KinaseProfiler)
Protocol: as §1

[10] = biological target: T10, NEK6(h) (Homo sapiens, UniProt Q9HC98)
T10 construct: purchased Eurofins Cerep SA (KinaseProfiler)
Protocol: as §1

[11] = biological target: T11, Flt1(h) (Homo sapiens, UniProt P17948)
T11 construct: purchased Eurofins Cerep SA (KinaseProfiler)
Protocol: as §1

[12] = biological target: T12, ARK5(h) (Homo sapiens, UniProt O60285)
T12 construct: purchased Eurofins Cerep SA (KinaseProfiler)
Protocol: as §1

[13] = biological target: T13, GRK6(h) (Homo sapiens, UniProt P43250)
T13 construct: purchased Eurofins Cerep SA (KinaseProfiler)
Protocol: as §1

[14] = biological target: T14, EphA1(h) (Homo sapiens, UniProt P21709)
T14 construct: purchased Eurofins Cerep SA (KinaseProfiler)
Protocol: as §1

[15] = biological target: T15, TLK1(h) (Homo sapiens, UniProt Q9UKI8)
T15 construct: purchased Eurofins Cerep SA (KinaseProfiler)
Protocol: as §1

[16] = biological target: T16, BMPR2(h) (Homo sapiens, UniProt Q13873)
T16 construct: purchased Eurofins Cerep SA (KinaseProfiler)
Protocol: as §1

[17] = biological target: T17, SRPK2(h) (Homo sapiens, UniProt P78362)
T17 construct: purchased Eurofins Cerep SA (KinaseProfiler)
Protocol: as §1

[18] = biological target: T18, PrKX(h) (Homo sapiens, UniProt P51817)
T18 construct: purchased Eurofins Cerep SA (KinaseProfiler)
Protocol: as §1

[19] = biological target: T19, JAK1(h) (Homo sapiens, UniProt P23458)
T19 construct: purchased Eurofins Cerep SA (KinaseProfiler)
Protocol: as §1

[20] = biological target: T20, Haspin(h) (Homo sapiens, UniProt Q8TF76)
T20 construct: purchased Eurofins Cerep SA (KinaseProfiler)
Protocol: as §1

[21] = biological target: T21, HIPK2(h) (Homo sapiens, UniProt Q9H2X6)
T21 construct: purchased Eurofins Cerep SA (KinaseProfiler)
Protocol: as §1

[22] = biological target: T22, PKD3(h) (Homo sapiens, UniProt O94806)
T22 construct: purchased Eurofins Cerep SA (KinaseProfiler)
Protocol: as §1

[23] = biological target: T23, CK1α(h) (Homo sapiens, UniProt P48729)
T23 construct: purchased Eurofins Cerep SA (KinaseProfiler)
Protocol: as §1

[24] = biological target: T24, IRAK4(h) (Homo sapiens, UniProt Q9NWZ3)
T24 construct: purchased Eurofins Cerep SA (KinaseProfiler)
Protocol: as §1

[25] = biological target: T25, ZIPK(h) (Homo sapiens, UniProt O43293)
T25 construct: purchased Eurofins Cerep SA (KinaseProfiler)
Protocol: as §1

[26] = biological target: T26, VRK2(h) (Homo sapiens, UniProt Q86Y07)
T26 construct: purchased Eurofins Cerep SA (KinaseProfiler)
Protocol: as §1

[27] = biological target: T27, DNA-PK(h) (Homo sapiens, UniProt P78527)
T27 construct: purchased Eurofins Cerep SA (KinaseProfiler)
Protocol: as §1

[28] = biological target: T28, MRCKγ(h) (Homo sapiens, UniProt Q6DT37)
T28 construct: purchased Eurofins Cerep SA (KinaseProfiler)
Protocol: as §1

[29] = biological target: T29, GAK(h) (Homo sapiens, UniProt O14976)
T29 construct: purchased Eurofins Cerep SA (KinaseProfiler)
Protocol: as §1

[30] = biological target: T30, PIP5K1g(h) (Homo sapiens, UniProt O60331)
T30 construct: purchased Eurofins Cerep SA (KinaseProfiler)
Protocol: as §1

[31] = biological target: T31, PKR(h) (Homo sapiens, UniProt P19525)
T31 construct: purchased Eurofins Cerep SA (KinaseProfiler)
Protocol: as §1

[32] = biological target: T32, AMPKα2(h) (Homo sapiens, UniProt P54646)
T32 construct: purchased Eurofins Cerep SA (KinaseProfiler)
Protocol: as §1

[33] = biological target: T33, JNK3(h) (Homo sapiens, UniProt P53779)
T33 construct: purchased Eurofins Cerep SA (KinaseProfiler)
Protocol: as §1

[34] = biological target: T34, Met(h) (Homo sapiens, UniProt P08581)
T34 construct: purchased Eurofins Cerep SA (KinaseProfiler)
Protocol: as §1

[35] = biological target: T35, PKCζ(h) (Homo sapiens, UniProt Q05513)
T35 construct: purchased Eurofins Cerep SA (KinaseProfiler)
Protocol: as §1

[36] = biological target: T36, LATS1(h) (Homo sapiens, UniProt O95835)
T36 construct: purchased Eurofins Cerep SA (KinaseProfiler)
Protocol: as §1

[37] = biological target: T37, WNK2(h) (Homo sapiens, UniProt Q9Y3S1)
T37 construct: purchased Eurofins Cerep SA (KinaseProfiler)
Protocol: as §1

[38] = biological target: T38, PDHK2(h) (Homo sapiens, UniProt Q15119)
T38 construct: purchased Eurofins Cerep SA (KinaseProfiler)
Protocol: as §1

[39] = biological target: T39, BrSK1(h) (Homo sapiens, UniProt Q8TDC3)
T39 construct: purchased Eurofins Cerep SA (KinaseProfiler)
Protocol: as §1

[40] = biological target: T40, CK2α1(h) (Homo sapiens, UniProt P68400)
T40 construct: purchased Eurofins Cerep SA (KinaseProfiler)
Protocol: as §1

[41] = biological target: T41, EphA8(h) (Homo sapiens, UniProt P29322)
T41 construct: purchased Eurofins Cerep SA (KinaseProfiler)
Protocol: as §1

T18 sequence (P51817 whole entry): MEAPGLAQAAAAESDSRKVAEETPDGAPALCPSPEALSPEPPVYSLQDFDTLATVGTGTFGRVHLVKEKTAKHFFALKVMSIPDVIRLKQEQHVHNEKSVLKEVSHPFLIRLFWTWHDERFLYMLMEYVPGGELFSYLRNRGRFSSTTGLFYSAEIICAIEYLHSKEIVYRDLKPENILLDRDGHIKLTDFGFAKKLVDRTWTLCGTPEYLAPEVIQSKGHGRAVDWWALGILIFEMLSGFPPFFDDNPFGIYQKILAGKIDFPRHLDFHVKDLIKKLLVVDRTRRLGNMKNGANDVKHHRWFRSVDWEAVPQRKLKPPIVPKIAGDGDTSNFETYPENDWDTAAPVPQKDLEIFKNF
T3 sequence (Q8IWQ3 whole entry): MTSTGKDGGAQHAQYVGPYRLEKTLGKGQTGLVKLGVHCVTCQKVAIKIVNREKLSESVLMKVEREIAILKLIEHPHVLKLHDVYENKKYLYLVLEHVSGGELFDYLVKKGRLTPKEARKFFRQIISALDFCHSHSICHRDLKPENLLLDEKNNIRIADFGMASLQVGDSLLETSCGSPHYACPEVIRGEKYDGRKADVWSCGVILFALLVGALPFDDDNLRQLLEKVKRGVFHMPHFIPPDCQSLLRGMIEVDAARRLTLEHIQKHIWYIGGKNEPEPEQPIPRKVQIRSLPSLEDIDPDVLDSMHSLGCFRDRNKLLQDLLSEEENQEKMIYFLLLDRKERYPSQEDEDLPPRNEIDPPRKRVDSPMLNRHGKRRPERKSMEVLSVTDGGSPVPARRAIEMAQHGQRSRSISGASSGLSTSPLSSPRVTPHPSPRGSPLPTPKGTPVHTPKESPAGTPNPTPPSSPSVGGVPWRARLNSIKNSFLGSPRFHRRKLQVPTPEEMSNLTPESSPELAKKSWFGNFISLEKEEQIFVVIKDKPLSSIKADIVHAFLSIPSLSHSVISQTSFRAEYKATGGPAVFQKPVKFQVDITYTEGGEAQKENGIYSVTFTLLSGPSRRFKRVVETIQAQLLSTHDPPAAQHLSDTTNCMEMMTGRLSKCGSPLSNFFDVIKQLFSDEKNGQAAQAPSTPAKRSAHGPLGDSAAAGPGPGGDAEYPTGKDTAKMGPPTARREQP
T13 sequence (P43250 whole entry): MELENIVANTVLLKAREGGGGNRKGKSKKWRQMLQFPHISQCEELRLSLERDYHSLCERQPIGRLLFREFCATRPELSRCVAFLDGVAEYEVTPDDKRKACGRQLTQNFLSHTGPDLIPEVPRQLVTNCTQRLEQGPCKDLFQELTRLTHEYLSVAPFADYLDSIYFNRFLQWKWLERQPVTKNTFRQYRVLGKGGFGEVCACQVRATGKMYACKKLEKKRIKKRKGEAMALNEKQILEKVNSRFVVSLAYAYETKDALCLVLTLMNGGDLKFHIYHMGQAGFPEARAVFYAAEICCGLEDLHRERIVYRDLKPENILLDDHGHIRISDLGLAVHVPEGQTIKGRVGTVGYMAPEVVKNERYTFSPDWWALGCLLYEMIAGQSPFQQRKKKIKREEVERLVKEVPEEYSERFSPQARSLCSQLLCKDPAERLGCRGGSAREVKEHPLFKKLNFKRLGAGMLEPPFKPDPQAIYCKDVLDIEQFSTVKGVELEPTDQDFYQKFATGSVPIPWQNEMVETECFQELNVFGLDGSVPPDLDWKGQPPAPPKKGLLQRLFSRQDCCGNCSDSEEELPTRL
T32 sequence (P54646 whole entry): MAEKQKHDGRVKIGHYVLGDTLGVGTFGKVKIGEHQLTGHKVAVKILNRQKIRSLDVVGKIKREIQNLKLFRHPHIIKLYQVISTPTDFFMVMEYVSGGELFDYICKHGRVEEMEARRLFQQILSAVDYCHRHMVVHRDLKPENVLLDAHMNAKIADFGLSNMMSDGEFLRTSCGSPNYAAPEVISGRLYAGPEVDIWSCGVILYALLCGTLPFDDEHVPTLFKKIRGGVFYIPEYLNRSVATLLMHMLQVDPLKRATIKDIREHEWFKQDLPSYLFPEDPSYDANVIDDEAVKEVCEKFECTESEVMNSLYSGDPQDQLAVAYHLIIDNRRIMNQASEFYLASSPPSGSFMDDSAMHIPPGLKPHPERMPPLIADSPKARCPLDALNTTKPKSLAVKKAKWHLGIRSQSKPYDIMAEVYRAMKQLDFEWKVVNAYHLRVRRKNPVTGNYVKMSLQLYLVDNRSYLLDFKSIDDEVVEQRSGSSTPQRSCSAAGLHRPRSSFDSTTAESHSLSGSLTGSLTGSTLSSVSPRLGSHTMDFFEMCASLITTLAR
T32 sequence (Q9Y478 whole entry partner): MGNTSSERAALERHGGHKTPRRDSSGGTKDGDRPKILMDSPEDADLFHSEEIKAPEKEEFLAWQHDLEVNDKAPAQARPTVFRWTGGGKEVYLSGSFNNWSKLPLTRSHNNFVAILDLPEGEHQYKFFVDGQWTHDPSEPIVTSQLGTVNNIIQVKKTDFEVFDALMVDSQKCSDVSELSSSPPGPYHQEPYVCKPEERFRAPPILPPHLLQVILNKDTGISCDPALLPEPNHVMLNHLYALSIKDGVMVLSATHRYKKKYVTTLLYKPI
T32 sequence (P54619 whole entry partner): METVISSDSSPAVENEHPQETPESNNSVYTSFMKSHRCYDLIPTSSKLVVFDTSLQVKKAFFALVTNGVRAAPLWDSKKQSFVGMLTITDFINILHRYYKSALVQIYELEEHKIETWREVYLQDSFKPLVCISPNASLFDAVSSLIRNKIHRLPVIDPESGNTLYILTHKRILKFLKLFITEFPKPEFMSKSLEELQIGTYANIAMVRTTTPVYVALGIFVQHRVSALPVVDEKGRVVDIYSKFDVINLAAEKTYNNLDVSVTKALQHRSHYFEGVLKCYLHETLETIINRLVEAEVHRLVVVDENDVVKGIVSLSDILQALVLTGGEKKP
T14 sequence (P21709 26-976): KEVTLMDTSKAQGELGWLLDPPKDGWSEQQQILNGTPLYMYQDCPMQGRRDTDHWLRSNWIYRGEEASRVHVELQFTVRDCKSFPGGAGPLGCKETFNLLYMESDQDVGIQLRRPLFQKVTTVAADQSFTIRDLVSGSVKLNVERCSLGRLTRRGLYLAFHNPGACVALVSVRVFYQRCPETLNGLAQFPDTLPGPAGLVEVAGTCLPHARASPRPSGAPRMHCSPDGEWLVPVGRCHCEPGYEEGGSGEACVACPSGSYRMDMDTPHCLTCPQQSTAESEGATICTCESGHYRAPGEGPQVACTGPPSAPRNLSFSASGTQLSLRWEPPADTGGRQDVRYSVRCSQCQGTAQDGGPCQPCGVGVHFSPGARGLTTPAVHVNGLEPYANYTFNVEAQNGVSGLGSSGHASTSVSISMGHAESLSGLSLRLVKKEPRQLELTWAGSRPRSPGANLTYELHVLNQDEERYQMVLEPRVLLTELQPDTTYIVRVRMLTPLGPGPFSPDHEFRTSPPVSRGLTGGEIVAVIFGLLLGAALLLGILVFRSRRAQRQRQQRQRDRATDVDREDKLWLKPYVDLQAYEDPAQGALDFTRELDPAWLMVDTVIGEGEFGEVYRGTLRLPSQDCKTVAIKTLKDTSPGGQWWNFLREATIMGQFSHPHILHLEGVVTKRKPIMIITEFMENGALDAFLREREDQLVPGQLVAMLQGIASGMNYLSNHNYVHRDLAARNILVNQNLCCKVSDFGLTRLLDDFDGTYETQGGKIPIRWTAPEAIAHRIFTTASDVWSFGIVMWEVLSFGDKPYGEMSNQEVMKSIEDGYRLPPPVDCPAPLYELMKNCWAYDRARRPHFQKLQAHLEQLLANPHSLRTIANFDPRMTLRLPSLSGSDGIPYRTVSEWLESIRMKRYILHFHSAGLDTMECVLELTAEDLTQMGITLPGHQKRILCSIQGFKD
T9 sequence (P50750 whole entry): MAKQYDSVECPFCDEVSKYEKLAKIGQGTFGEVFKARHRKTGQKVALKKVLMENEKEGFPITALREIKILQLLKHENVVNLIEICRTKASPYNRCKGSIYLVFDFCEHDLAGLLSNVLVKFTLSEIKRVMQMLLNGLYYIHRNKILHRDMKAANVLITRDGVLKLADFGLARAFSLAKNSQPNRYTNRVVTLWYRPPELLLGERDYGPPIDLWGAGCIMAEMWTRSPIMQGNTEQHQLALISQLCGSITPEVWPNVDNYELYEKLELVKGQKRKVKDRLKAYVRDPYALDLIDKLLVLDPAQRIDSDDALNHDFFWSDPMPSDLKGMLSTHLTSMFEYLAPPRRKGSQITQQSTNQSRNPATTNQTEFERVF
T9 sequence (O60563 whole entry partner): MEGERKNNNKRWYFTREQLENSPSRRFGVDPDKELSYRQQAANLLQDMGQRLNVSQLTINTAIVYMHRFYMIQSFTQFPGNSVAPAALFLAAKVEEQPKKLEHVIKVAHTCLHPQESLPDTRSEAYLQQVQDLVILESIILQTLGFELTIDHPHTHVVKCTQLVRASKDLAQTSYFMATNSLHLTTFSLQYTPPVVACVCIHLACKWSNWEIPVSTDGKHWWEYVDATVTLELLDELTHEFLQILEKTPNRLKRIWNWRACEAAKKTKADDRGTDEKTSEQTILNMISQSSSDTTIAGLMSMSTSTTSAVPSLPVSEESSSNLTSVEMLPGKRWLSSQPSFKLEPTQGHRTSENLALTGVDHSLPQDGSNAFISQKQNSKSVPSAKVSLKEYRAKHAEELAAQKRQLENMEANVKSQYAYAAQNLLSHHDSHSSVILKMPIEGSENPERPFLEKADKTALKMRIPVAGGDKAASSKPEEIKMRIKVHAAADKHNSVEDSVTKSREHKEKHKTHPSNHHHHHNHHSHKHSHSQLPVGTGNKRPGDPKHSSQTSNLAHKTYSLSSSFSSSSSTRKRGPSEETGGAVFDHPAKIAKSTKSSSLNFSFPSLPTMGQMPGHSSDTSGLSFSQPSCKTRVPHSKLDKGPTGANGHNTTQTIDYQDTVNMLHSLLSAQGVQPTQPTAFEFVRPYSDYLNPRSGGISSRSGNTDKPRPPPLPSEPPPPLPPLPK

For `CN(C)Cc1cccc(Nc2ncc(Cl)c(-c3csc(C(=O)NN4CCOCC4)c3)n2)c1` [SKLB-D18, 4-(5-chloro-2-((3-((dimethylamino)methyl)phenyl)amino)pyrimidin-4-yl)-N-morpholinothiophene-2-carboxamide], the inhibition at 1 µM [1] was 9%, the inhibition at 1 µM [2] was 66% and the inhibition at 1 µM [3] was 23%. For the same molecule, the inhibition at 1 µM [4] was 52%, the inhibition at 1 µM [5] was 49% and the inhibition at 1 µM [6] was 48%. It also gave an inhibition at 1 µM [7] of 10%, an inhibition at 1 µM [8] of 20% and an inhibition at 1 µM [9] of 28%. For the same molecule, the inhibition at 1 µM [10] was 0%, the inhibition at 1 µM [11] was 39% and the inhibition at 1 µM [12] was 72%. The inhibition at 1 µM [13] was 2%, the inhibition at 1 µM [14] was 10% and the inhibition at 1 µM [15] was 24%. For the same molecule, the inhibition at 1 µM [16] was 21%, the inhibition at 1 µM [17] was 9% and the inhibition at 1 µM [18] was 43%. It also gave an inhibition at 1 µM [19] of 59%, an inhibition at 1 µM [20] of 12% and an inhibition at 1 µM [21] of 67%. It also gave an inhibition at 1 µM [22] of 55%, an inhibition at 1 µM [23] of 8% and an inhibition at 1 µM [24] of 47%. For the same molecule, the inhibition at 1 µM [25] was 64%, the inhibition at 1 µM [26] was -3% and the inhibition at 1 µM [27] was 10%. It also gave an inhibition at 1 µM [28] of 34%, an inhibition at 1 µM [29] of 78% and an inhibition at 1 µM [30] of -4%. The inhibition at 1 µM [31] was 26%, the inhibition at 1 µM [32] was 60% and the inhibition at 1 µM [33] was 66%. The inhibition at 1 µM [34] was 61%, the inhibition at 1 µM [35] was -15% and the inhibition at 1 µM [36] was 21%. For the same molecule, the inhibition at 1 µM [37] was 24%, the inhibition at 1 µM [38] was 14% and the inhibition at 1 µM [39] was 2%. The inhibition at 1 µM [40] was 49% and the inhibition at 1 µM [41] was 14%.
